In PubChem BioAssay AID330 (DTP/NCI, 2004) one finds T/C data, which are given here for 26 compounds.

This assay deals with P388 leukemia ip, CD2F1 mice, survival T/C. Description: NCI In Vivo Anticancer Drug Screen. Data for tumor model P388 Leukemia (intraperitoneal) in CD2F1 (CDF1) mice. The conditions noted are these: endpoint: median survival time, higher = longer survival. The method, boiled down:
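Mice carrying the transplanted tumor received test compound or vehicle. Survival was recorded in each group, and the value is the treated-group measurement divided by that of the vehicle-treated control group.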

Where [1] appears, read: dose: 100.0 mg/kg/injection, schedule: Q01DX001 (ip), vehicle: Klucel (hydroxypropylcellulose) (HPC).
[2] abbreviates: dose: 200.0 mg/kg/injection, schedule: Q01DX001 (ip), vehicle: Klucel (hydroxypropylcellulose) (HPC).
Where [3] appears, read: dose: 50.0 mg/kg/injection, schedule: Q01DX009 (ip), vehicle: Klucel (hydroxypropylcellulose) (HPC).
Setting [4] is: dose: 100.0 mg/kg/injection, schedule: Q01DX009 (ip), vehicle: Klucel (hydroxypropylcellulose) (HPC).
Where [5] appears, read: dose: 60.0 mg/kg/injection, schedule: Q01DX005 (ip), vehicle: saline with Tween-80.
Where [6] appears, read: dose: 120.0 mg/kg/injection, schedule: Q01DX005 (ip), vehicle: saline with Tween-80.
[7] abbreviates: dose: 12.5 mg/kg/injection, schedule: Q01DX005 (ip), vehicle: saline with Tween-80.
Where [8] appears, read: dose: 50.0 mg/kg/injection, schedule: Q01DX005 (ip), vehicle: saline with Tween-80.
Setting [9] is: dose: 50.0 mg/kg/injection, schedule: Q01DX005 (ip), vehicle: saline.
[10] abbreviates: dose: 25.0 mg/kg/injection, schedule: Q01DX009 (ip), vehicle: saline with Tween-80.
Where [11] appears, read: dose: 200.0 mg/kg/injection, schedule: Q01DX009 (ip), vehicle: Klucel (hydroxypropylcellulose) (HPC).
[12] abbreviates: dose: 100.0 mg/kg/injection, schedule: Q04DX003 (ip), vehicle: Klucel (hydroxypropylcellulose) (HPC).
The mark [13] stands for this setting: dose: 200.0 mg/kg/injection, schedule: Q04DX003 (ip), vehicle: Klucel (hydroxypropylcellulose) (HPC).
The mark [14] stands for this setting: dose: 50.0 mg/kg/injection, schedule: Q01DX009 (ip), vehicle: saline.
[15] abbreviates: dose: 100.0 mg/kg/injection, schedule: Q01DX009 (ip), vehicle: saline.

The structures appear in SMILES notation. Several values for one entry are separate records, joined by “and”; a condition that tells them apart may be missing. Equal values may be shown once. Inconclusive results and toxic doses are left out.

As for `O=C1NC(=O)C(=NC2C(=O)NC(=O)NC2=O)C(=O)N1`, the T/C reads like this: (dose: 30.0 mg/kg/injection, schedule: Q01DX005 (ip), vehicle: saline) 96 % of control; (dose: 60.0 mg/kg/injection, schedule: Q01DX005 (ip), vehicle: saline) 92 % of control and 95 % of control; (dose: 120.0 mg/kg/injection, schedule: Q01DX005 (ip), vehicle: saline) 92 % of control; (dose: 240.0 mg/kg/injection, schedule: Q01DX005 (ip), vehicle: saline) 86 % of control.

For `Cc1cccc(C(=O)N2C(=O)Cc3ccccc32)c1`, the T/C is, setting by setting: under setting [1], 99 % of control; under setting [2], 94 % of control.

For the compound `Clc1cccc(Cl)c1NC1=NCCS1`, the T/C runs as follows: under setting [3], 92 % of control; under setting [4], 101 % of control.

As to `O=C1CN2C(=O)C1(c1ccccc1)C(=O)NC2=S` (centres undefined), the T/C is 105 % of control (dose: 100.0 mg/kg/injection, schedule: Q04DX002 (ip), vehicle: Klucel (hydroxypropylcellulose) (HPC)); 106 % of control (dose: 200.0 mg/kg/injection, schedule: Q04DX002 (ip), vehicle: Klucel (hydroxypropylcellulose) (HPC)); 106 % of control (dose: 400.0 mg/kg/injection, schedule: Q04DX002 (ip), vehicle: Klucel (hydroxypropylcellulose) (HPC)).

As for `COC(=O)c1nc(N)nc(C(=O)OC)c1C(=O)c1ccc(Cl)c(Cl)c1`, the T/C runs as follows: under setting [5], 100 % of control; under setting [6], 94 % of control.

As for `CC(=O)[C@H]1CC[C@H]2[C@@H]3C[C@H](F)C4=CC(=O)CC[C@]4(C)[C@H]3C(=O)C[C@]12C`, the T/C reads like this: (dose: 100.0 mg/kg/injection, schedule: Q01DX009 (ip), vehicle: saline with Tween-80) 100 % of control; (dose: 200.0 mg/kg/injection, schedule: Q01DX009 (ip), vehicle: saline with Tween-80) 100 % of control; (dose: 400.0 mg/kg/injection, schedule: Q01DX009 (ip), vehicle: saline with Tween-80) 100 % of control.

For the compound `O=C(O)C1CCC(=O)N1C(=O)OCc1ccccc1` (centres undefined), the T/C was 95 % of control (dose: 100.0 mg/kg/injection, schedule: Q04DX003 (ip), vehicle: saline with Tween-80); 90 % of control (dose: 200.0 mg/kg/injection, schedule: Q04DX003 (ip), vehicle: saline with Tween-80); 90 % of control (dose: 400.0 mg/kg/injection, schedule: Q04DX003 (ip), vehicle: saline with Tween-80).

Turning to `CCCCN1CCC(CNc2ccnc3cc(Cl)ccc23)C1` (centres undefined), the T/C by setting is: under setting [7], 93 % of control; (dose: 25.0 mg/kg/injection, schedule: Q01DX005 (ip), vehicle: saline with Tween-80) 90 % of control; under setting [8], 109 % of control and 93 % of control.

Take `COc1ccc(C)cc1N=NC1C(=O)N(C(=O)CC(=O)Nc2ccccc2Cl)N=C1C` (centres undefined): the T/C by setting is: (dose: 50.0 mg/kg/injection, schedule: Q01DX005 (ip), vehicle: Klucel (hydroxypropylcellulose) (HPC)) 96 % of control; (dose: 100.0 mg/kg/injection, schedule: Q01DX005 (ip), vehicle: Klucel (hydroxypropylcellulose) (HPC)) 95 % of control.

Consider `Cn1cc(N)c(=O)[nH]c1=O`, for which the T/C is, setting by setting: under setting [9], 98 % of control; (dose: 100.0 mg/kg/injection, schedule: Q01DX005 (ip), vehicle: saline) 101 % of control; (dose: 200.0 mg/kg/injection, schedule: Q01DX005 (ip), vehicle: saline) 102 % of control.

Regarding `COc1cc2c(c(OC)c1OC)C(=O)/C(=C\c1ccccc1)O2`, the T/C (dose: 3.13 mg/kg/injection, schedule: Q01DX009 (ip), vehicle: saline with Tween-80) is 105 % of control; the T/C (dose: 6.25 mg/kg/injection, schedule: Q01DX009 (ip), vehicle: saline with Tween-80) was 101 % of control and 102 % of control and 95 % of control; the T/C (dose: 12.5 mg/kg/injection, schedule: Q01DX009 (ip), vehicle: saline with Tween-80) was 100 % of control and 105 % of control and 114 % of control; the T/C under setting [10] was 105 % of control and 121 % of control and 93 % of control; the T/C (dose: 50.0 mg/kg/injection, schedule: Q01DX009 (ip), vehicle: saline with Tween-80) was 118 % of control and 96 % of control.

Regarding `S=[As]1(c2cccc3ccccc23)c2ccccc2-c2ccccc21`, the T/C by setting is: (dose: 30.0 mg/kg/injection, schedule: Q01DX009 (ip), vehicle: saline with Tween-80) 106 % of control; (dose: 60.0 mg/kg/injection, schedule: Q01DX009 (ip), vehicle: saline with Tween-80) 100 % of control; (dose: 120.0 mg/kg/injection, schedule: Q01DX009 (ip), vehicle: saline with Tween-80) 110 % of control.

With `Cc1ncc(C)c2c([N+](=O)[O-])cccc12`, the T/C is, setting by setting: under setting [3], 106 % of control; under setting [4], 110 % of control; under setting [11], 96 % of control.

On to `COc1ccc2c(n1)c(=NCCCCCCN=c1c3ccc(Cl)cc3n(O)c3ccc(OC)nc13)c1ccc(Cl)cc1n2O`, for which the T/C was 116 % of control under setting [12] and 100 % of control under setting [13].

Take `C=C(C)C1CC=C(C)/C(=N/NC(=O)c2ccccn2)C1` (centres undefined): the T/C reads like this: under setting [12], 111 % of control; under setting [13], 94 % of control; (dose: 400.0 mg/kg/injection, schedule: Q04DX003 (ip), vehicle: Klucel (hydroxypropylcellulose) (HPC)) 94 % of control.

Consider `NS(=O)(=O)c1ccc(NC(=O)CCCCl)cc1`, for which the T/C is, setting by setting: under setting [3], 100 % of control; under setting [4], 94 % of control; under setting [11], 86 % of control.

As for `CCC[CH2][Sn]([CH2]CCC)([O]c1ccccc1C=Nc1ccc(F)cc1)[O]c1ccccc1C=Nc1ccc(F)cc1`, the T/C is 116 % of control (dose: 6.25 mg/kg/injection, schedule: Q01DX005 (ip), vehicle: saline with Tween-80) and 122 % of control under setting [7].

As for `COc1cc(OC)c(C(=O)CCl)c(O)c1Cl`, the T/C under setting [10] is 113 % of control and the T/C (dose: 66.0 mg/kg/injection, schedule: Q01DX009 (ip), vehicle: saline with Tween-80) was 110 % of control.

Turning to `CSc1nc2[nH]ncc2c(=O)[nH]1`, the T/C (dose: 25.0 mg/kg/injection, schedule: Q01DX009 (ip), vehicle: Klucel (hydroxypropylcellulose) (HPC)) was 101 % of control; the T/C under setting [3] was 99 % of control; the T/C under setting [4] is 93 % of control; the T/C under setting [11] is 86 % of control.

Turning to `CCCCC(C)N(CCNc1cc(OC)cc2cccnc12)CC(C)C` (centres undefined), the T/C is 106 % of control (dose: 12.5 mg/kg/injection, schedule: Q01DX005 (ip), vehicle: saline); 101 % of control (dose: 25.0 mg/kg/injection, schedule: Q01DX005 (ip), vehicle: saline); 106 % of control and 97 % of control under setting [9].

Turning to `Cc1nc(Br)c(C(O)c2ccccc2)n1C` (centres undefined), the T/C is 103 % of control under setting [5]; 92 % of control under setting [6]; 97 % of control (dose: 240.0 mg/kg/injection, schedule: Q01DX005 (ip), vehicle: saline with Tween-80).

Turning to `COC(=O)[C@H]1[C@H]2C[C@@H]3c4[nH]c5cc(OC)ccc5c4CCN3C[C@H]2C[C@@H](OC(=O)CC(C)=O)[C@@H]1OC`, the T/C is 95 % of control under setting [8]; 91 % of control (dose: 100.0 mg/kg/injection, schedule: Q01DX005 (ip), vehicle: saline with Tween-80); 88 % of control (dose: 200.0 mg/kg/injection, schedule: Q01DX005 (ip), vehicle: saline with Tween-80).

Turning to `O=S(Cc1ccc2c(c1)OCO2)c1ccccc1` (centres undefined), the T/C reads like this: under setting [1], 101 % of control; under setting [2], 100 % of control; (dose: 400.0 mg/kg/injection, schedule: Q01DX001 (ip), vehicle: Klucel (hydroxypropylcellulose) (HPC)) 100 % of control.

`O=C1CC2(C(=O)N1CN1CCCCC1)c1ccccc1-c1ccccc12`: the T/C is 104 % of control and 106 % of control under setting [3]; 102 % of control and 115 % of control under setting [4]; 156 % of control under setting [11].

As to `CSC(N)=Nc1cccc2c1CCCC2`, the T/C is 100 % of control (dose: 25.0 mg/kg/injection, schedule: Q01DX009 (ip), vehicle: saline); 100 % of control under setting [14]; 95 % of control under setting [15].

As to `c1ccc2sc(N3CCCCC3)nc2c1`, the T/C runs as follows: (dose: 25.0 mg/kg/injection, schedule: Q04DX003 (ip), vehicle: Klucel (hydroxypropylcellulose) (HPC)) 105 % of control; under setting [14], 104 % of control; (dose: 50.0 mg/kg/injection, schedule: Q04DX003 (ip), vehicle: Klucel (hydroxypropylcellulose) (HPC)) 99 % of control; under setting [15], 104 % of control; under setting [12], 100 % of control; (dose: 200.0 mg/kg/injection, schedule: Q01DX009 (ip), vehicle: saline) 103 % of control. Moreover, the T/C under setting [13] was 109 % of control.
